Earlier results, collected in patent US20080176893A1, “Formulation of a Thienopyridine Platelet Aggregation Inhibitor” (ELI LILLY AND COMPANY, priority 2005, published 2008).

CC(=O)Oc1cc2c(s1)CCN(C(C(=O)C1CC1)c1ccccc1F)C2.Cl (stereo not drawn) [Prasugrel, 2-Acetoxy-5-(α-cycloprpylcarbonyl-2-fluorobenzyl)-4,5,6,7-tetrahydrothieno[3,2-c]pyridine]
degradation on prolonged exposure to air and moisture: some degradation
